Assay type in all cases: cell-based
One assay concerns LXFS 660. In words: Clonogenic assay, LXFS 660. As to conditions: Homo sapiens, Lung, small cell, Small cell lung carcinoma, soft agar, read-out: IC50 (colony formation). The procedure: (§1) The anticancer activity of (R)-2-amino-7-[2-(6-methoxy-pyridin-2-yl)-phenyl]-4-methyl-7,8-dihydro-6H-pyrido[4,3-d]pyrimidin-5-one is evaluated in 30 human tumor xenografts in vitro using a clonogenic assay. In this assay, human cells derived from cancer patients are evaluated for the capacity of (R)-2-amino-7-[2-(6-methoxy-pyridin-2-yl)-phenyl]-4-methyl-7,8-dihydro-6H-pyrido[4,3-d]pyrimidin-5-one to inhibit the formation of 3 dimensional colonies. […] The tumor xenografts which have never been cultured in cell culture plastic dishes are isolated from nude mice. Tumor cell suspensions are prepared and incubated in 24 well plates containing layers of soft agar. Under these conditions a special subpopulation of cells selectively grows to colonies. (R)-2-amino-7-[2-(6-methoxy-pyridin-2-yl)-phenyl]-4-methyl-7,8-dihydro-6H-pyrido[4,3-d]pyrimidin-5one is tested in 6 concentrations up to 1000 nM. The tumor test panel comprises 1 to 10 models of 12 different human tumor types, which were bladder cancer, colon, gastric, non small cell lung (adeno, squamous cell, and large cell), small cell lung, mammary, ovary, and prostate cancer, as well as leukemia, lymphoma, melanoma, and sarcoma. Antitumor effects are recorded as inhibition of colony formation in relation to untreated controls. […]

A further assay concerns LXFE 211. In words: Clonogenic assay, LXFE 211. The settings on record: Homo sapiens, Lung, non-small cell, Squamous cell carcinoma, soft agar, read-out: IC50 (colony formation). The procedure:
as §1

The subject of the next assay is H1975. In words: Cell proliferation assay, H1975 (lung). As to conditions: Homo sapiens, NCI-H1975, 72 hours in presence of compound. The procedure: (§2) Seventeen cancer derived cell lines are used (GTL-16, N87, H1975, A549, H69, A2780, PC3, BT474, SKBR3, MCF-7, A375, MV4;11, K562, KM12L4A, H929, OPM-2 and KMS-11) to test the effect of (R)-2-amino-7-[2-(6-methoxy-pyridin-2-yl)-phenyl]-4-methyl-7,8-dihydro-6H-pyrido[4,3-d]pyrimidin-5-one. These cell lines cover the following 9 tumor types: Gastric, Lung, Ovarian, Prostate, Breast, Melanoma, Leukemia, Colon and Multiple myeloma. After division and medium change, cells from stock culture are seeded on cell plates and cultured for about 18 hours to allow cell growth and attachment before starting the assay. Then on the first day of the assay, (R)-2-amino-7-[2-(6-methoxy-pyridin-2-yl)-phenyl]-4-methyl-7,8-dihydro-6H-pyrido[4,3-d]pyrimidin-5-one is added to the medium at various concentrations. Cells are cultured up to 72 or 96 hours and cell proliferation is determined using commercially available cell proliferation kits.
(§3) Table 1 relates to the concentration in nM of (R)-2-amino-7-[2-(6-methoxy-pyridin-2-yl)-phenyl]-4-methyl-7,8-dihydro-6H-pyrido[4,3-d]pyrimidin-5-one which inhibits cell proliferation by 50% (IC50). […]

Another assay relates to MAXF 857. The experiment in a line: Clonogenic assay, MAXF 857. As to conditions: Homo sapiens, Breast, Invasive ductal carcinoma, soft agar, read-out: IC50 (colony formation). The procedure: as §1
Another assay deals with MV4:11. In words: Cell proliferation assay, MV4:11 (leukemia). As to conditions: Homo sapiens, 72 hours in presence of compound. The procedure:
as §2, §3

The next assay relates to MAXF 583. In words: Clonogenic assay, MAXF 583. The settings on record: Homo sapiens, Breast, Ductual adenocarcinoma, soft agar, read-out: IC50 (colony formation). The procedure: as §1
The next assay relates to KM12L4A. The experiment in a line: Cell proliferation assay, KM12L4A (colon). The settings on record: 72 hours in presence of compound. The procedure:
as §2, §3

In the next assay the test system is LEXF MOLT4. The experiment in a line: Clonogenic assay, LEXF MOLT4. As to conditions: Homo sapiens, MOLT-4, Leukemia, ALL, T lymphoblast, soft agar, read-out: IC50 (colony formation). The procedure: as §1
In the next assay the test system is LEXF JURKAT. The experiment in a line: Clonogenic assay, LEXF JURKAT. As to conditions: Homo sapiens, Leukemia, T cell leukemia, soft agar, read-out: IC50 (colony formation). The procedure: as §1
The test system of the next assay is H69. In words: Cell proliferation assay, H69 (lung). As to conditions: Homo sapiens, NCI-H69, 72 hours in presence of compound. The procedure: as §2, §3
A further assay relates to LXFL 1647. In words: Clonogenic assay, LXFL 1647. The settings on record: Homo sapiens, Lung, non-small cell, Large cell lung carcinoma, soft agar, read-out: IC50 (colony formation). The procedure: as §1
The next assay has as its system OPM-2. The experiment in a line: Cell proliferation assay, OPM-2 (multiple myeloma). As to conditions: Homo sapiens, 72 hours in presence of compound. The procedure: as §2, §3
In the next assay the test system is LXFA 677. In words: Clonogenic assay, LXFA 677. As to conditions: Homo sapiens, Lung, non-small cell, Adenocarcinoma, soft agar, read-out: IC50 (colony formation). The procedure: as §1
The next assay has as its system KMS-11. The experiment in a line: Cell proliferation assay, KMS-11 (multiple myeloma). The settings on record: Homo sapiens, 72 hours in presence of compound. The procedure:
as §2, §3

A further assay relates to SXF 1301. The experiment in a line: Clonogenic assay, SXF 1301. As to conditions: Homo sapiens, Sarcoma, Malignant rhabdomyosarcoma, soft agar, read-out: IC50 (colony formation). The procedure:
as §1

For a further assay, the system named is MEXF 462. The experiment in a line: Clonogenic assay, MEXF 462. The settings on record: Homo sapiens, Amelanotic melanoma, soft agar, read-out: IC50 (colony formation). The procedure: as §1
The test system of a further assay is MAXF 1162. The experiment in a line: Clonogenic assay, MAXF 1162. The settings on record: Homo sapiens, Breast, invasive ductal carcinoma, soft agar, read-out: IC50 (colony formation). The procedure: as §1
The subject of another assay is BXF 1218. The experiment in a line: Clonogenic assay, BXF 1218. As to conditions: Homo sapiens, Bladder, Transitional cell carcinoma, soft agar, read-out: IC50 (colony formation). The procedure: as §1
For a further assay, the system named is OVXF 1353. In words: Clonogenic assay, OVXF 1353. As to conditions: Homo sapiens, Ovary, Adenocarcinoma, soft agar, read-out: IC50 (colony formation). The procedure: as §1

This passage reports IC50 and GI50 results from patent publication US20130045983A1, “HSP90 INHIBITORS FOR THERAPEUTIC TREATMENT” (Novartis AG, priority 2008, published 2013).

The structures appear in SMILES notation.

By IC50 is commonly meant the midpoint of a concentration-inhibition curve. One may read the GI50 as the concentration giving 50% growth inhibition. Regarding `COc1cccc(-c2ccccc2[C@H]2Cc3nc(N)nc(C)c3C(=O)N2)n1` [(R)-2-amino-7-[2-(6-methoxy-pyridin-2-yl)-phenyl]-4-methyl-7,8-dihydro-6H-pyrido[4,3-d]pyrimidin-5-one], the concentration for half-maximal inhibition (IC50) in the assay with LXFS 660 was determined as 6 nM; in the assay on LXFE 211, 0.76 nM; in the assay on MAXF 857 it was 12 nM; in the assay on MAXF 583, 24 nM; with LEXF MOLT4, 21 nM; in the assay with LEXF JURKAT it was 4 nM. Moreover, the concentration for half-maximal inhibition (IC50) in the assay on LXFL 1647 was 203 nM; with LXFA 677, 27 nM; in the assay with SXF 1301, 26 nM; in the assay on MEXF 462, 65 nM; in the assay with MAXF 1162, 6 nM; in the assay with BXF 1218, 26 nM. Besides, in the assay on OVXF 1353, the IC50 came to 53 nM. The GI50 with H1975 is 33 nM; with MV4:11 it was 4 nM; in the assay on KM12L4A it was 11 nM; with H69, 37 nM; in the assay with OPM-2 it was 13 nM; with KMS-11 it was 7 nM.
